Experimental data reported in PubChem BioAssay AID248 (DTP/NCI, 2004).
“And” between values parts separate entries of the source, which are not always exact repeats. Equal entries are not always repeated. Inconclusive results and toxic doses are left out. No stated cut-off is given here; in the data, active means T/C of 150% or more; inactive means T/C below 125%.

Test system: L1210 leukemia ip in BDF1 mice, survival T/C
Assay: NCI In Vivo Anticancer Drug Screen. Data for tumor model L1210 Leukemia (intraperitoneal) in B6D2F1 (BDF1) mice
Conditions: endpoint: mean survival time, higher = longer survival
Procedure, shortened: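 Each compound was tested against a transplantable tumor grown in mice. The endpoint was survival, with treated animals benchmarked against vehicle controls as a simple ratio.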

[1] = dose: 100.0 mg/kg/injection, schedule: Q04DX003 (ip), vehicle: saline
[2] = dose: 200.0 mg/kg/injection, schedule: Q04DX003 (ip), vehicle: saline
[3] = dose: 400.0 mg/kg/injection, schedule: Q04DX003 (ip), vehicle: saline
[4] = dose: 50.0 mg/kg/injection, schedule: Q01DX009 (ip), vehicle: saline with Tween-80
[5] = dose: 100.0 mg/kg/injection, schedule: Q01DX009 (ip), vehicle: saline with Tween-80
[6] = dose: 200.0 mg/kg/injection, schedule: Q01DX009 (ip), vehicle: saline with Tween-80
[7] = dose: 100.0 mg/kg/injection, schedule: Q01DX001 (ip), vehicle: saline
[8] = dose: 200.0 mg/kg/injection, schedule: Q01DX001 (ip), vehicle: saline
[9] = dose: 100.0 mg/kg/injection, schedule: Q01DX001 (ip), vehicle: carboxymethylcellulose (CMC)
[10] = dose: 200.0 mg/kg/injection, schedule: Q01DX001 (ip), vehicle: carboxymethylcellulose (CMC)
[11] = dose: 400.0 mg/kg/injection, schedule: Q01DX001 (ip), vehicle: carboxymethylcellulose (CMC)
[12] = dose: 100.0 mg/kg/injection, schedule: Q01DX001 (ip), vehicle: Klucel (hydroxypropylcellulose) (HPC)
[13] = dose: 200.0 mg/kg/injection, schedule: Q01DX001 (ip), vehicle: Klucel (hydroxypropylcellulose) (HPC)
[14] = dose: 400.0 mg/kg/injection, schedule: Q01DX001 (ip), vehicle: Klucel (hydroxypropylcellulose) (HPC)
[15] = dose: 400.0 mg/kg/injection, schedule: Q01DX001 (ip), vehicle: saline

Measured: T/C

CC(=O)CC(=O)NCc1ccncc1
inactive: dose: 100.0 mg/kg/injection, schedule: Q01DX009 (ip), vehicle: saline 97 % of control | [1] 100 % of control | dose: 200.0 mg/kg/injection, schedule: Q01DX009 (ip), vehicle: saline 105 % of control | [2] 102 % of control | dose: 400.0 mg/kg/injection, schedule: Q01DX009 (ip), vehicle: saline 95 % of control | [3] 97 % of control

COc1ccc(NC(=O)C2C3C=CC(C3)C2C(=O)O)cc1 (stereo not given)
inactive: [4] 98 % of control | [5] 100 % of control | [6] 100 % of control

CC1(c2ccc3ccccc3c2)OC(=O)c2ccccc21 (stereo not given)
inactive: dose: 25.0 mg/kg/injection, schedule: Q01DX009 (ip), vehicle: saline with Tween-80 106 % of control | [4] 91 % of control

CC1=CC2=C(C(=O)C1=O)C(C)CCC2C(C)C (stereo not given)
inactive: [7] 98 % of control | [8] 94 % of control

O=C1/C(=C/c2ccc(Br)cc2)Cc2ccccc21
inactive: dose: 100.0 mg/kg/injection, schedule: Q04DX002 (ip), vehicle: saline with Tween-80 94 % of control | dose: 200.0 mg/kg/injection, schedule: Q04DX002 (ip), vehicle: saline with Tween-80 90 % of control | dose: 400.0 mg/kg/injection, schedule: Q04DX002 (ip), vehicle: saline with Tween-80 90 % of control

O=C1CCN(CCCN2CCC(=O)N(Cc3ccccc3)C2=S)C(=S)N1Cc1ccccc1
inactive: dose: 100.0 mg/kg/injection, schedule: Q04DX002 (ip), vehicle: DMSO 87 % of control | dose: 200.0 mg/kg/injection, schedule: Q04DX002 (ip), vehicle: DMSO 104 % of control | dose: 400.0 mg/kg/injection, schedule: Q04DX002 (ip), vehicle: DMSO 101 % of control

O=C1NC(=O)C(=Cc2ccccc2[N+](=O)[O-])C(=O)N1
inactive: [9] 93 % of control | [10] 91 % of control | [11] 87 % of control

COc1ccc2c(c1)CCC1=C2CCC(C(=O)O)C1(C)C(=O)O (stereo not given)
inactive: [12] 97 % of control | [13] 108 % of control | [14] 92 % of control

COc1ccc(O)c(N=Nc2nccs2)c1
inactive: [4] 109 % of control | [5] 106 % of control | [6] 102 % of control

CCN(CC)C(=S)SSC(=S)N(CC)CC
inactive: dose: 25.0 mg/kg/injection, schedule: Q01DX009 (ip), vehicle: Klucel (hydroxypropylcellulose) (HPC) 100 % of control | dose: 25.0 mg/kg/injection, schedule: Q04DX003 (ip), vehicle: Klucel (hydroxypropylcellulose) (HPC) 93 % of control | dose: 50.0 mg/kg/injection, schedule: Q01DX009 (ip), vehicle: Klucel (hydroxypropylcellulose) (HPC) 100 % of control | dose: 50.0 mg/kg/injection, schedule: Q04DX003 (ip), vehicle: Klucel (hydroxypropylcellulose) (HPC) 93 % of control | dose: 100.0 mg/kg/injection, schedule: Q01DX009 (ip), vehicle: Klucel (hydroxypropylcellulose) (HPC) 91 % of control | dose: 100.0 mg/kg/injection, schedule: Q04DX003 (ip), vehicle: Klucel (hydroxypropylcellulose) (HPC) 96 % of control and 98 % of control | dose: 200.0 mg/kg/injection, schedule: Q01DX009 (ip), vehicle: Klucel (hydroxypropylcellulose) (HPC) 98 % of control and 101 % of control | dose: 200.0 mg/kg/injection, schedule: Q04DX003 (ip), vehicle: Klucel (hydroxypropylcellulose) (HPC) 88 % of control and 91 % of control | dose: 400.0 mg/kg/injection, schedule: Q01DX009 (ip), vehicle: Klucel (hydroxypropylcellulose) (HPC) 96 % of control and 100 % of control | dose: 400.0 mg/kg/injection, schedule: Q04DX003 (ip), vehicle: Klucel (hydroxypropylcellulose) (HPC) 93 % of control and 96 % of control

O=C(O)c1ccccc1[N+](=O)[O-]
inactive: [12] 99 % of control | [13] 97 % of control | [14] 96 % of control

NC(CC(=O)O)C(=O)O.[Cu+2] (stereo not given)
inactive: dose: 5.0 mg/kg/injection, schedule: Q01DX009 (ip), vehicle: Klucel (hydroxypropylcellulose) (HPC) 106 % of control | dose: 10.0 mg/kg/injection, schedule: Q01DX009 (ip), vehicle: Klucel (hydroxypropylcellulose) (HPC) 104 % of control | dose: 20.0 mg/kg/injection, schedule: Q01DX009 (ip), vehicle: Klucel (hydroxypropylcellulose) (HPC) 108 % of control | dose: 20.0 mg/kg/injection, schedule: Q04DX003 (ip), vehicle: Klucel (hydroxypropylcellulose) (HPC) 100 % of control

N=c1ccccn1CC(O)COc1cccc([N+](=O)[O-])c1 (stereo not given)
inactive: dose: 100.0 mg/kg/injection, schedule: Q04DX002 (ip), vehicle: other 97 % of control | dose: 200.0 mg/kg/injection, schedule: Q04DX002 (ip), vehicle: other 93 % of control

COC(=O)c1cc(NC(=O)c2ccccc2F)cc(C(=O)OC)c1
inactive: dose: 100.0 mg/kg/injection, schedule: Q01DX009 (ip), vehicle: carboxymethylcellulose (CMC) 88 % of control | dose: 200.0 mg/kg/injection, schedule: Q01DX009 (ip), vehicle: carboxymethylcellulose (CMC) 90 % of control | dose: 400.0 mg/kg/injection, schedule: Q01DX009 (ip), vehicle: carboxymethylcellulose (CMC) 91 % of control

c1ccc(SCC2C3CSC4C3CC2C4Sc2ccccc2)cc1 (stereo not given)
inactive: dose: 100.0 mg/kg/injection, schedule: Q01DX001 (ip), vehicle: saline with Tween-80 98 % of control | dose: 200.0 mg/kg/injection, schedule: Q01DX001 (ip), vehicle: saline with Tween-80 105 % of control | dose: 400.0 mg/kg/injection, schedule: Q01DX001 (ip), vehicle: saline with Tween-80 94 % of control

CCS(=O)(=O)c1ccc(NC(=O)OC2CC(C)CCC2C(C)C)cc1 (stereo not given)
inactive: [9] 100 % of control | [10] 102 % of control | [11] 91 % of control

CC(C)=CCn1cnc2c1c(=O)n(C)c(=O)n2C
inactive: dose: 50.0 mg/kg/injection, schedule: Q04DX002 (ip), vehicle: Klucel (hydroxypropylcellulose) (HPC) 100 % of control | dose: 100.0 mg/kg/injection, schedule: Q04DX002 (ip), vehicle: Klucel (hydroxypropylcellulose) (HPC) 88 % of control | dose: 200.0 mg/kg/injection, schedule: Q04DX002 (ip), vehicle: Klucel (hydroxypropylcellulose) (HPC) 96 % of control

COc1ccc(/C(C#N)=C2C=C/C(=N\O)C(C)=C/2Cl)cc1
inactive: dose: 50.0 mg/kg/injection, schedule: Q01DX001 (ip), vehicle: carboxymethylcellulose (CMC) 109 % of control | [9] 96 % of control | dose: 100.0 mg/kg/injection, schedule: Q04DX003 (ip), vehicle: saline with Tween-80 92 % of control | [10] 93 % of control | dose: 200.0 mg/kg/injection, schedule: Q04DX003 (ip), vehicle: saline with Tween-80 106 % of control | [11] 91 % of control | dose: 400.0 mg/kg/injection, schedule: Q04DX003 (ip), vehicle: saline with Tween-80 97 % of control

Oc1ccc([S+](c2ccc(O)cc2)c2ccc(O)cc2)cc1
inactive: dose: 5.0 mg/kg/injection, schedule: Q01DX001 (ip), vehicle: saline 96 % of control | dose: 10.0 mg/kg/injection, schedule: Q01DX001 (ip), vehicle: saline 96 % of control | dose: 20.0 mg/kg/injection, schedule: Q01DX001 (ip), vehicle: saline 107 % of control | dose: 40.0 mg/kg/injection, schedule: Q01DX001 (ip), vehicle: saline 105 % of control

COc1cc(N(CCCl)CCCl)ccc1C=Nc1ccc2c(c1)nc(C)n2C
inactive: dose: 68.8 mg/kg/injection, schedule: Q04DX002 (ip), vehicle: Klucel (hydroxypropylcellulose) (HPC) 104 % of control | dose: 137.5 mg/kg/injection, schedule: Q04DX002 (ip), vehicle: Klucel (hydroxypropylcellulose) (HPC) 101 % of control | dose: 275.0 mg/kg/injection, schedule: Q04DX002 (ip), vehicle: Klucel (hydroxypropylcellulose) (HPC) 117 % of control

c1ccc2c(c1)C[N+](=C1CCCCC1)C2
inactive: dose: 75.0 mg/kg/injection, schedule: Q01DX009 (ip), vehicle: saline 91 % of control | [7] 93 % of control | dose: 150.0 mg/kg/injection, schedule: Q01DX009 (ip), vehicle: saline 88 % of control | [8] 97 % of control | dose: 300.0 mg/kg/injection, schedule: Q01DX009 (ip), vehicle: saline 91 % of control | [15] 98 % of control

CCC(C(=O)O)=C1CCCCC1
inactive: [7] 95 % of control | [8] 95 % of control | [15] 103 % of control

CC1(C(=O)O)C2C=CC(C2)C1C(=O)O (stereo not given)
inactive: [1] 96 % of control | [2] 94 % of control | [3] 102 % of control
